# Reference: patent publication US20240060146A1, “CHEMICAL SUBSTANCE EVALUATION SYSTEM USING MULTICOLOR LIGHT-EMITTING CELLS” (TOHOKU UNIVERSITY, priority 2020, published 2024)
# Counter-ions that a name gives are not always drawn.
# Experiments:
# Type in all cases: cell-based
# 2H4 cells [1] = test: Evaluation of combination of IL-2 Luc LTT and IL-2 Luc assay; design: key: Positive (Pos): If the result is either LCT in the IL-2 Luc LTT or S in the IL-2 Luc assay, or both, the chemical substance is determined to be an immunosuppressive substance.; Negative (Neg): In the case other than the above, the chemical substance is determined to be a non-immunosuppressive substance; details: LCT in IL-2 Luc LTT or S in IL-2 Luc assay = Pos
# Experimental: Positive (Pos): If the result is either LCT in the IL-2 Luc LTT or S in the IL-2 Luc assay, or both, the chemical substance is determined to be an immunosuppressive substance. Negative (Neg): In the case other than the above, the chemical substance is determined to be a non-immunosuppressive substance.
# 2H4 cells [2] = test: IL-2 Luc LTT: evaluation of chemical substance in 2H4 cells; details: 1 h chemical, then 25 nM PMA and 1 μM ionomycin 24 h, class from Min % suppression (nIL2LA) and Min Inh-GAPLA
# Experimental: (§1) 2H4 cells were established from Jurkat cells according to the method described in PTL 1. First, for the preparation of 2H4 cells, a plasmid having SLG introduced downstream of the IL-2 promoter, a plasmid having SLR introduced downstream of the G3PDH promoter, and a plasmid having SLO introduced downstream of the INF-γ promoter were prepared as internal standards. These plasmids contained a resistance gene for hygromycin B, puromycin, and neomycin downstream of SLG, SLR, and SLO, respectively. The conditions for drug selection after transfection of the host Jurkat cells were as follows: in the primary selection, the cells were cultured for 1 week in the presence of a drug. In the secondary selection culture, the cells that survived in the primary selection culture were seeded in a 96-well plate at 1 cell/well or 200 cells/well, and cultured for 2 weeks under the same drug conditions. After the secondary selection culture, the cells were subjected to clone selection from the two points of signal intensity and signal induction by drug treatment. The G3PDH promoter SLR was first introduced to establish monochromatic stable cell line Jurkat: G3PDH-SLR #14D1 cells. These cells were used as the parent cell line to introduce the INF-γ promoter SLO, thereby establishing bichromatic stable cell line Jurkat: INFγ-SLO/G3PDH-SLR #2B12 cells. Subsequently, the obtained cells were used as a parent cell line to introduce the IL-2 promoter SLG, thereby establishing trichromatic stable cell line Jurkat IL-2-SLG/INFγ-SLO/G3PDH-SLR #2H4 cells.
# The chemical substances listed in Table 1 were evaluated using 2H4 cells. 2H4 cells were seeded in a 96-well plate at 1×10^4/well and treated with each chemical substance for 1 hour, followed by incubating the cells with 25 nM PMA and 1 μM ionomycin for 24 hours. After 24 hours from the treatment with PMA and ionomycin, Tripluck Assay Reagent (manufactured by Toyobo Co., Ltd.) was added, and the amount of luminescence was measured with a Phelios microplate luminometer (manufactured by Atto Corporation). For control, 2H4 cells untreated with a chemical substance were also examined in the same manner. The amount of luminescence of SLG luciferase activity (IL2LA), SLR luciferase activity (GAPLA), and SLO luciferase activity (IFNLA) was measured, and IL-2LA and IFNLA were each normalized by GAPLA and determined to be nIL2LA and nIFNLA, respectively. Thereafter, for the concentration of each chemical substance, “% suppression” and “Inh-GAPLA” were determined according to the following formulas (1) and (2), and the chemical substances were evaluated by using their minimum value (Min % suppression, Min Inh-GAPLA).
# In the evaluation, for control, PMA/ionomycin-treated 2H4 cells and PMA/ionomycin-untreated 2H4 cells were also measured for nIL2LA.
# (§2) % suppression={(nIL2LA in 2H4 cells untreated with a chemical substance)−(nIL2LA in 2H4 cells treated with a chemical substance)}×100/(nIL2LA in 2H4 cells untreated with a chemical substance) ---(1) Inh-GAPLA=(GAPLA in 2H4 cells treated with a chemical substance)/(GAPLA in 2H4 cells untreated with a chemical substance) ---(2)
# 2H4 cells [3] = test: IL-2 Luc assay: evaluation of chemical substance in 2H4 cells; details: 1 h chemical, then PMA/ionomycin, luminescence after six hours, class from Min % suppression of nIL2LA
# Experimental: as §1, §2
# The chemical substances listed in Table 1 were evaluated using 2H4 cells. 2H4 cells were seeded in a 96-well plate at 2×10^5 cells/50 μl/well and treated with each chemical substance for 1 hour, followed by incubating the cells with 25 nM PMA and 1 µM ionomycin […]. After six hours from the treatment with PMA and ionomycin, Tripluc: Assay Reagent (manufactured by Toyobo Co., Ltd.) was added, and the amount of luminescence was measured with a Phelios microplate luminometer (manufactured by Atto Corporation). For control, 2H4 cells untreated with a chemical substance were also examined in the same manner. The amount of luminescence of SLG luciferase activity (IL2LA), SLR luciferase activity (GAPLA), and SLO luciferase activity (IFNLA) was measured, and IL-2LA and IFNLA were each normalized by GAPLA and determined to be nIL2LA and nIFNLA, respectively. Thereafter, for the concentration of each chemical substance, the value of suppression was calculated according to formula (1) above, and the chemical substances were evaluated by using their minimum value (Min suppression).
smiles,measurement,setting,value
O=c1[nH]cc(F)c(=O)[nH]1 [5-Fluorouracil],Evaluation of Combination,2H4 cells [1],Pos
same,IL-2 Luc LTT,2H4 cells [2],LCT (Min % suppression ≤−35 and Min Inh-GAPLA <0.7: Leukocyte toxic (denoted as “LCT”; determined to have cell growth inhibition action and/or metabolic activity inhibition action))
same,IL-2 Luc Assay,2H4 cells [3],N (−35<Min % suppression <35: No Effect (denoted as “N”; determined to not affect immunity))
S=c1nc[nH]c2nc[nH]c12 [6-Mercaptoprine],Evaluation of Combination,2H4 cells [1],Neg
same,IL-2 Luc LTT,2H4 cells [2],NLCT
same,IL-2 Luc Assay,2H4 cells [3],N (−35<Min % suppression <35: No Effect (denoted as “N”; determined to not affect immunity))
Nc1nc2nc[nH]c2c(=S)[nH]1 [6-Thioguanine],Evaluation of Combination,2H4 cells [1],Pos
same,IL-2 Luc LTT,2H4 cells [2],LCT (Min % suppression ≤−35 and Min Inh-GAPLA <0.7: Leukocyte toxic (denoted as “LCT”; determined to have cell growth inhibition action and/or metabolic activity inhibition action))
same,IL-2 Luc Assay,2H4 cells [3],N (−35<Min % suppression <35: No Effect (denoted as “N”; determined to not affect immunity))
"CC(=O)Nc1ccc(O)cc1 [Acetaminophen (AA), Acetaminophen]",Evaluation of Combination,2H4 cells [1],Pos
same,IL-2 Luc Assay,2H4 cells [3],A (Min suppression ≤−35: Augmentation (denoted as “A”; determined to have immunoaugmenting action))
Nc1nc2c(ncn2COCCO)c(=O)[nH]1 [Acyclovir],Evaluation of Combination,2H4 cells [1],Neg
same,IL-2 Luc LTT,2H4 cells [2],I (−35<Min % suppression <35 and 0.7≤Min Inh-GAPLA: Inconclusive (denoted as “I”; possibly not measurable due to low water solubility))
same,IL-2 Luc Assay,2H4 cells [3],N (−35<Min % suppression <35: No Effect (denoted as “N”; determined to not affect immunity))
"Cn1cnc([N+](=O)[O-])c1Sc1ncnc2nc[nH]c12 [Azathioprine (AZ), Azathioprine]",Evaluation of Combination,2H4 cells [1],Pos
same,IL-2 Luc LTT,2H4 cells [2],NLCT
same,IL-2 Luc Assay,2H4 cells [3],S (Min %; suppression ≥35: Suppression (denoted as “S”; determined to have immunosuppressive action))
CS(=O)(=O)OCCCCOS(C)(=O)=O [Busulfan],Evaluation of Combination,2H4 cells [1],Neg
same,IL-2 Luc LTT,2H4 cells [2],I (−35<Min % suppression <35 and 0.7≤Min Inh-GAPLA: Inconclusive (denoted as “I”; possibly not measurable due to low water solubility))
same,IL-2 Luc Assay,2H4 cells [3],N (−35<Min % suppression <35: No Effect (denoted as “N”; determined to not affect immunity))
O=NN(CCCl)C(=O)NCCCl [Carmustine],Evaluation of Combination,2H4 cells [1],Pos
same,IL-2 Luc LTT,2H4 cells [2],NLCT
same,IL-2 Luc Assay,2H4 cells [3],S (Min %; suppression ≥35: Suppression (denoted as “S”; determined to have immunosuppressive action))
"CCN(CC)CCCC(C)Nc1ccnc2cc(Cl)ccc12 (centres unmarked) [Chloroquine (CQ), Chloroquine]",Evaluation of Combination,2H4 cells [1],Pos
same,IL-2 Luc LTT,2H4 cells [2],NLCT
same,IL-2 Luc Assay,2H4 cells [3],S (Min %; suppression ≥35: Suppression (denoted as “S”; determined to have immunosuppressive action))
NS(=O)(=O)c1cc2c(cc1Cl)N=CNS2(=O)=O [Chlorothiazide],Evaluation of Combination,2H4 cells [1],Neg
same,IL-2 Luc LTT,2H4 cells [2],NLCT
same,IL-2 Luc Assay,2H4 cells [3],N (−35<Min % suppression <35: No Effect (denoted as “N”; determined to not affect immunity))
COc1cc2c(c(OC)c1OC)-c1ccc(OC)c(=O)cc1[C@@H](NC(C)=O)CC2 [Colchicine],Evaluation of Combination,2H4 cells [1],Pos
same,IL-2 Luc LTT,2H4 cells [2],LCT (Min % suppression ≤−35 and Min Inh-GAPLA <0.7: Leukocyte toxic (denoted as “LCT”; determined to have cell growth inhibition action and/or metabolic activity inhibition action))
same,IL-2 Luc Assay,2H4 cells [3],S (Min %; suppression ≥35: Suppression (denoted as “S”; determined to have immunosuppressive action))
Nc1ccn([C@@H]2O[C@H](CO)[C@@H](O)[C@@H]2O)c(=O)n1 [Cytarabine],Evaluation of Combination,2H4 cells [1],Pos
same,IL-2 Luc LTT,2H4 cells [2],LCT (Min % suppression ≤−35 and Min Inh-GAPLA <0.7: Leukocyte toxic (denoted as “LCT”; determined to have cell growth inhibition action and/or metabolic activity inhibition action))
same,IL-2 Luc Assay,2H4 cells [3],N (−35<Min % suppression <35: No Effect (denoted as “N”; determined to not affect immunity))
"C[C@@H]1C[C@H]2[C@@H]3CCC4=CC(=O)C=C[C@]4(C)[C@@]3(F)[C@@H](O)C[C@]2(C)[C@@]1(O)C(=O)CO [Dexamethasone (Dex), Dexamethasone]",Evaluation of Combination,2H4 cells [1],Neg
same,IL-2 Luc LTT,2H4 cells [2],NLCT
same,IL-2 Luc Assay,2H4 cells [3],N (−35<Min % suppression <35: No Effect (denoted as “N”; determined to not affect immunity))
C[C@H]1O[C@@H](O[C@H]2[C@@H](O)C[C@H](O[C@H]3[C@@H](O)C[C@H](O[C@H]4CC[C@@]5(C)[C@H](CC[C@@H]6[C@@H]5C[C@@H](O)[C@]5(C)[C@@H](C7=CC(=O)OC7)CC[C@]65O)C4)O[C@@H]3C)O[C@@H]2C)C[C@H](O)[C@@H]1O [Digoxin],Evaluation of Combination,2H4 cells [1],Pos
same,IL-2 Luc LTT,2H4 cells [2],NLCT
same,IL-2 Luc Assay,2H4 cells [3],S (Min %; suppression ≥35: Suppression (denoted as “S”; determined to have immunosuppressive action))
CN(C)CCOC(c1ccccc1)c1ccccc1 [Diphenhydramine],Evaluation of Combination,2H4 cells [1],Pos
same,IL-2 Luc LTT,2H4 cells [2],NLCT
same,IL-2 Luc Assay,2H4 cells [3],S (Min %; suppression ≥35: Suppression (denoted as “S”; determined to have immunosuppressive action))
COc1cccc2c1C(=O)c1c(O)c3c(c(O)c1C2=O)C[C@@](O)(C(=O)CO)C[C@@H]3O[C@H]1C[C@H](N)[C@H](O)[C@H](C)O1 [Doxorubicin hydrochloride],Evaluation of Combination,2H4 cells [1],Pos
same,IL-2 Luc LTT,2H4 cells [2],LCT (Min % suppression ≤−35 and Min Inh-GAPLA <0.7: Leukocyte toxic (denoted as “LCT”; determined to have cell growth inhibition action and/or metabolic activity inhibition action))
same,IL-2 Luc Assay,2H4 cells [3],S (Min %; suppression ≥35: Suppression (denoted as “S”; determined to have immunosuppressive action))
COc1cc([C@@H]2c3cc4c(cc3[C@@H](O[C@@H]3O[C@@H]5CO[C@@H](C)O[C@H]5[C@H](O)[C@H]3O)[C@H]3COC(=O)[C@H]23)OCO4)cc(OC)c1O [Etoposide],Evaluation of Combination,2H4 cells [1],Pos
same,IL-2 Luc Assay,2H4 cells [3],N (−35<Min % suppression <35: No Effect (denoted as “N”; determined to not affect immunity))
Nc1nc(F)nc2c1ncn2[C@@H]1O[C@H](CO)[C@@H](O)[C@@H]1O [Fludarabine],Evaluation of Combination,2H4 cells [1],Pos
same,IL-2 Luc LTT,2H4 cells [2],LCT (Min % suppression ≤−35 and Min Inh-GAPLA <0.7: Leukocyte toxic (denoted as “LCT”; determined to have cell growth inhibition action and/or metabolic activity inhibition action))
same,IL-2 Luc Assay,2H4 cells [3],A (Min suppression ≤−35: Augmentation (denoted as “A”; determined to have immunoaugmenting action))
COc1ccc2c(c1)c(CC(=O)O)c(C)n2C(=O)c1ccc(Cl)cc1 [Indomethacin],Evaluation of Combination,2H4 cells [1],Pos
same,IL-2 Luc Assay,2H4 cells [3],S (Min %; suppression ≥35: Suppression (denoted as “S”; determined to have immunosuppressive action))
"O=C(O)c1cc(/N=N/c2ccc(S(=O)(=O)Nc3ccccn3)cc2)ccc1O [Sulfasalazine (SASP), Sulfasalazine]",Evaluation of Combination,2H4 cells [1],Pos
same,IL-2 Luc Assay,2H4 cells [3],S (Min %; suppression ≥35: Suppression (denoted as “S”; determined to have immunosuppressive action))
